target: full-length ATR (Homo sapiens (Human), UniProt Q13535); assay: ATR Inhibition Assay (radioactive-phosphate incorporation); type: biochemical; details: read-out: ATR Ki
Protocol: Compounds were screened for their ability to inhibit ATR kinase using a radioactive-phosphate incorporation assay. Assays were carried out in a mixture of 50 mM Tris/HCl (pH 7.5), 10 mM MgCl2 and 1 mM DTT. Final substrate concentrations were […] [γ-33P]ATP (3mCi 33P ATP/mmol ATP, Perkin Elmer) and 800 μM target peptide ([…]).
Assays were carried out at 25° C. in the presence of 5 nM full-length ATR. An assay stock buffer solution was prepared containing all of the reagents listed above, with the exception of ATP and the test compound of interest. […] The plate was pre-incubated for 10 minutes at 25° C. and the reaction initiated by addition of 15 μL [γ-33P]ATP (final concentration 10 μM).
The reaction was stopped after […] by the addition of 30 μL 0.1M phosphoric acid containing 2 mM ATP. A multiscreen phosphocellulose filter 96-well plate (Millipore, Cat no. MAPHN0B50) was pretreated with 100 μL 0.2M phosphoric acid prior to the addition of 45 μL of the stopped assay mixture. […] After drying, 100 μL Optiphase ‘SuperMix’ liquid scintillation cocktail (Perkin Elmer) was added to the well prior to scintillation counting (1450 Microbeta Liquid Scintillation Counter, Wallac).
After removing mean background values for all of the data points, Ki(app) data were calculated from non-linear regression analysis of the initial rate data using the Prism software package (GraphPad Prism version 3.0cx for Macintosh, GraphPad Software, San Diego Calif., USA).

Chain of full-length ATR (Q13535 whole entry): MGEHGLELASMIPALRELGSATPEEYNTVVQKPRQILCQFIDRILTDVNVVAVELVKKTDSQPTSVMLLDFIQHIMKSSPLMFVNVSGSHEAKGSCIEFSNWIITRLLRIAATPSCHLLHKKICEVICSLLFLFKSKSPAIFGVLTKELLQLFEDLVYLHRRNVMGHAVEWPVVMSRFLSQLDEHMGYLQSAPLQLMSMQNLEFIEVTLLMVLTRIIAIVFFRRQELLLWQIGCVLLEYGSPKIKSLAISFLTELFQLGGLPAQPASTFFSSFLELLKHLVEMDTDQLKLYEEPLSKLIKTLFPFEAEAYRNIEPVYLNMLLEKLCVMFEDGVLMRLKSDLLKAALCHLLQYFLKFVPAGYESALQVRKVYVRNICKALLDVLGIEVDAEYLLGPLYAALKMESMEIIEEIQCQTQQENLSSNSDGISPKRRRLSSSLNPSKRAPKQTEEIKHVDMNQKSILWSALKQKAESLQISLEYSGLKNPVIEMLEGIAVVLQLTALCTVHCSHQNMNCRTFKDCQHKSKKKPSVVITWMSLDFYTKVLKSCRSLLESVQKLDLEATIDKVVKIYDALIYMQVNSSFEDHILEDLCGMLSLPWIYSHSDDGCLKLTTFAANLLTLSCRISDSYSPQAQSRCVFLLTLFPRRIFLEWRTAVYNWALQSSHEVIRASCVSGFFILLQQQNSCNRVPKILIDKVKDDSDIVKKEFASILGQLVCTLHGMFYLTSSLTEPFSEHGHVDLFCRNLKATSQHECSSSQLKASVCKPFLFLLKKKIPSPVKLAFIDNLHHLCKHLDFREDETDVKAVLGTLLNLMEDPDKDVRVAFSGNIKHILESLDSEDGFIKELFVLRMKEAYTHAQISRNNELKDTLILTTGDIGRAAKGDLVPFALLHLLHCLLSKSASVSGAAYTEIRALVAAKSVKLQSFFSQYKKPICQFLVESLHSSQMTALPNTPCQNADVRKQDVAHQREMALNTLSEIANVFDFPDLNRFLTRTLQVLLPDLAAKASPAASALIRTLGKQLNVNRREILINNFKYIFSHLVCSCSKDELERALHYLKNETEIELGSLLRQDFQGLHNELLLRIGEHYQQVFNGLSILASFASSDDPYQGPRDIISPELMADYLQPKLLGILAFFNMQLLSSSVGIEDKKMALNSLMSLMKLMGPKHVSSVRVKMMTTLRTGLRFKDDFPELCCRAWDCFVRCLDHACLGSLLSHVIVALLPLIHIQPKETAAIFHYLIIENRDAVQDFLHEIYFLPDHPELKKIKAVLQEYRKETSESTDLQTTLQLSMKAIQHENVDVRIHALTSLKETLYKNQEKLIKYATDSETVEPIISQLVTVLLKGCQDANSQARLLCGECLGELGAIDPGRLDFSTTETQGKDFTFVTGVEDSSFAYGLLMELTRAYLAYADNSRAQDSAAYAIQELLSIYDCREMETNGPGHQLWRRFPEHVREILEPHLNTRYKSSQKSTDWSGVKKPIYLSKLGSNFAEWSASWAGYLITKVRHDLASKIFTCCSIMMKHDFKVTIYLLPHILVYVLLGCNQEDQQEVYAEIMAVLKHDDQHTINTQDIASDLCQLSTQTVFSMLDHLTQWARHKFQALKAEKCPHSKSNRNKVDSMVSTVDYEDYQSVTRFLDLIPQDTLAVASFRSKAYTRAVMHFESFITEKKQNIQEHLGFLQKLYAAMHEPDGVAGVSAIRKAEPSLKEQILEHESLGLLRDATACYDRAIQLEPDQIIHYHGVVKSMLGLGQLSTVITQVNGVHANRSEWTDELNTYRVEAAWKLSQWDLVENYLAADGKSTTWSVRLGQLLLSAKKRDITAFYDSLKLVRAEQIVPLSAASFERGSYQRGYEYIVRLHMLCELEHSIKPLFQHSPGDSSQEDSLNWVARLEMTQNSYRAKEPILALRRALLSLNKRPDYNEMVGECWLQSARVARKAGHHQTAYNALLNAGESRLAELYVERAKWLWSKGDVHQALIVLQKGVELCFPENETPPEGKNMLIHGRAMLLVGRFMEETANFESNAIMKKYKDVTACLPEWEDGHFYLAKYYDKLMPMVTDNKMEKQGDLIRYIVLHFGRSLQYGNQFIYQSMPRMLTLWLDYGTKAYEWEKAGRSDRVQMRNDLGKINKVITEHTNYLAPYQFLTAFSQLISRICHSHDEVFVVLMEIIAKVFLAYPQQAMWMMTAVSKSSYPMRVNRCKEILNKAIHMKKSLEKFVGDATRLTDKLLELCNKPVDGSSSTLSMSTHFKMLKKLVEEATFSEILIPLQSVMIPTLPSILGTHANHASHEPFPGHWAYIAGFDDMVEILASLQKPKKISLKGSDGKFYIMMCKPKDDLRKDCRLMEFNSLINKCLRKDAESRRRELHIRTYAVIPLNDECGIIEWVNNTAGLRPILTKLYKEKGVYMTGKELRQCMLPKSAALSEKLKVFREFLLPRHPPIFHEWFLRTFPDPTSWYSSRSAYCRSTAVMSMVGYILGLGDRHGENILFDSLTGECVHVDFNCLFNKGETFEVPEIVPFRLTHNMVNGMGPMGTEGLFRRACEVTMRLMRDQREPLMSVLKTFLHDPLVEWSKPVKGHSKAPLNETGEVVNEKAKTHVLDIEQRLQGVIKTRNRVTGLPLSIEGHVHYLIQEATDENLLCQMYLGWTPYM

Ki [nM] | Compound
≤ 10 | CC(C)S(=O)(=O)c1ccc(-c2cnc(N)c(-c3nnc(-c4cccc([C@@H](C)N)c4)o3)n2)cc1 [IA-80, 3-[5-[3-[(1R)-1-aminoethyl]phenyl]-1,3,4-oxadiazol-2-yl]-5-(4-isopropylsulfonylphenyl)pyrazin-2-amine]
100 to 5000 | CC(C)S(=O)(=O)c1ccc(-c2cnc(N)c(-c3nnc(CCCN)o3)n2)cc1 [IA-91, 3-[5-(3-aminopropyl)-1,3,4-oxadiazol-2-yl]-5-(4-isopropylsulfonylphenyl)pyrazin-2-amine]
10 to 100 | CC(O)c1cccc(-c2nnc(-c3nc(-c4ccc(C(=O)N(C)C)cc4)cnc3N)o2)c1 (stereo not drawn) [IA-275, 4-[5-amino-6-[5-[3-(1-hydroxyethyl)phenyl]-1,3,4-oxadiazol-2-yl]pyrazin-2-yl]-N,N-dimethyl-benzamide]
10 to 100 | Nc1ncc(-c2ccccc2CCO)nc1-c1nnc(-c2ccccc2)o1 [IA-137, 2-[2-[5-amino-6-(5-phenyl-1,3,4-oxadiazol-2-yl)pyrazin-2-yl]phenyl]ethanol]
≤ 10 | CN(C)CCS(=O)(=O)c1ccc(-c2cnc(N)c(-c3nnc(-c4ccc(O)cc4)o3)n2)cc1 [IA-191, 4-[5-[3-amino-6-[4-(2-dimethylaminoethylsulfonyl)phenyl]pyrazin-2-yl]-1,3,4-oxadiazol-2-yl]phenol]
10 to 100 | CC(C)S(=O)(=O)c1ccc(-c2cnc(N)c(-c3nnc(-c4ccc(CNCCN(C)C)cc4)o3)n2)cc1 [IA-225, N-[[4-[5-[3-amino-6-(4-isopropylsulfonylphenyl)pyrazin-2-yl]-1,3,4-oxadiazol-2-yl]phenyl]methyl]-N′,N′-dimethyl-ethane-1,2-diamine]
≤ 10 | CN(C)[C@@H]1CCN(C(=O)c2ccc(-c3cnc(N)c(-c4nnc(-c5ccccc5)o4)n3)cc2)C1 [IA-10]
10 to 100 | Nc1ncc(-c2ccc(C(=O)N3CCCNCC3)cc2)nc1C(=O)Nc1ccc2c(c1)NNC2 [Compound V-28]
≤ 10 | CNCc1ccc(-c2nnc(-c3nc(-c4ccc(S(=O)(=O)C(C)C)cc4C)cnc3N)o2)cc1 [IA-293, 5-(4-isopropylsulfonyl-2-methyl-phenyl)-3-[5-[4-(methylaminomethyl)phenyl]-1,3,4-oxadiazol-2-yl]pyrazin-2-amine]
100 to 5000 | CC(=O)Nc1cccc(NC(=O)c2nc(-c3cccnc3)cnc2N)c1 [Compound I-95, 3-amino-N-(3-ethanamidophenyl)-6-(pyridin-3-yl)pyrazine-2-carboxamide]
100 to 5000 | N#Cc1cccc(-c2cnc(N)c(C(=O)Nc3ccccc3)n2)c1 [Compound I-10, 3-amino-6-(3-cyanophenyl)-N-phenylpyrazine-2-carboxamide]
10 to 100 | COc1ccccc1NC(=O)c1nc(-c2ccc3[nH]ccc3c2)cnc1N [Compound I-29, 3-amino-6-(1H-indol-5-yl)-N-(2-methoxyphenyl)pyrazine-2-carboxamide]
10 to 100 | N#Cc1cccc(-c2cnc(N)c(-c3nnc(-c4ccccc4)o3)n2)c1 [IA-252, 3-[5-amino-6-(5-phenyl-1,3,4-oxadiazol-2-yl)pyrazin-2-yl]benzonitrile]
10 to 100 | Cc1cccc(-c2nnc(-c3nc(-c4cccnc4)cnc3N)[nH]2)c1 [Compound I-141, 5-(pyridin-3-yl)-3-(5-m-tolyl-4H-1,2,4-triazol-3-yl)pyrazin-2-amine]
100 to 5000 | Nc1ncc(-c2cccc(C(=O)NCCN3CCCCC3)c2)nc1C(=O)Nc1ccccc1 [Compound I-61, 3-amino-N-phenyl-6-(3-(2-(piperidin-1-yl)ethylcarbamoyl)phenyl) pyrazine-2-carboxamide]
100 to 5000 | Nc1ncc(-c2ccc(CO)cc2)nc1C(=O)Nc1ccccc1 [Compound I-16, 3-amino-6-(4-(hydroxymethyl)phenyl)-N-phenylpyrazine-2-carboxamide]
≤ 10 | CC(CN(C)C)S(=O)(=O)c1ccc(-c2cnc(N)c(-c3nnc(-c4ccccc4F)o3)n2)cc1 (stereo not drawn) [IA-337, 5-[4-[2-(dimethylamino)-1-methyl-ethyl]sulfonylphenyl]-3-[5-(2-fluorophenyl)-1,3,4-oxadiazol-2-yl]pyrazin-2-amine]
10 to 100 | COc1cccc(NC(=O)c2nc(-c3cccnc3)cnc2N)c1 [Compound I-86, 3-amino-N-(3-methoxyphenyl)-6-(pyridin-3-yl)pyrazine-2-carboxamide]
10 to 100 | Cc1ccc2nc(-c3nc(-c4ccc(C(=O)N5CCN(C)CC5)cc4)cnc3N)[nH]c2c1 [Compound I-150, (4-(5-amino-6-(6-methyl-1H-benzo[d]imidazol-2-yl)pyrazin-2-yl)phenyl)(4-methylpiperazin-1-yl)methanone]
10 to 100 | CN(C)C(=O)c1ccc(-c2cnc(N)c(-c3nnc(-c4ccc(C(O)CO)cc4)o3)n2)cc1 (stereo not drawn) [IA-106, 4-[5-amino-6-[5-[4-(1,2-dihydroxyethyl)phenyl]-1,3,4-oxadiazol-2-yl]pyrazin-2-yl]-N,N-dimethyl-benzamide]

Ki [nM] | Compound
≤ 10 | COc1ccccc1NC(=O)c1nc(-c2ccc(C(=O)N(C)C)cc2)cnc1N [Compound I-28, 3-amino-6-(4-(dimethylcarbamoyl)phenyl)-N-(2-methoxyphenyl) pyrazine-2-carboxamide]
100 to 5000 | CN(C)CCCOc1ccc(-c2cnc(N)c(-c3nnc(-c4ccccc4)o3)n2)cn1 [IA-279, 5-[6-[3-(dimethylamino)propoxy]-3-pyridyl]-3-(5-phenyl-1,3,4-oxadiazol-2-yl)pyrazin-2-amine]
100 to 5000 | Nc1ncc(-c2ccccc2)nc1-c1nc2cccc(O)c2[nH]1 [Compound I-113, 2-(3-amino-6-phenylpyrazin-2-yl)-1H-benzo[d]imidazol-7-ol]
≤ 10 | CNCc1ccc(-c2nnc(-c3nc(-c4ccc(S(=O)(=O)C(C)C)cc4C(F)F)cnc3N)o2)cc1 [IA-322, 5-[2-(difluoromethyl)-4-isopropylsulfonyl-phenyl]-3-[5-[4-(methylaminomethyl)phenyl]-1,3,4-oxadiazol-2-yl]pyrazin-2-amine]
100 to 5000 | CN(C)c1cccc(NC(=O)c2nc(-c3cccnc3)cnc2N)c1 [Compound I-90, 3-amino-N-(3-(dimethylamino)phenyl)-6-(pyridin-3-yl)pyrazine-2-carboxamide]
100 to 5000 | COc1cnccc1-c1cnc(N)c(-c2nnc(-c3ccccc3)o2)n1 [IA-86, 5-(3-methoxy-4-pyridyl)-3-(5-phenyl-1,3,4-oxadiazol-2-yl)pyrazin-2-amine]
≤ 10 | CNCc1ccc(-c2nnc(-c3nc(-c4ccc(S(=O)(=O)N5CCC5)cc4)cnc3N)o2)cc1 [IA-297, 5-[4-(azetidin-1-ylsulfonyl)phenyl]-3-[5-[4-(methylaminomethyl)phenyl]-1,3,4-oxadiazol-2-yl]pyrazin-2-amine]
100 to 5000 | CC(C)S(=O)(=O)c1ccc(-c2cnc(N)c(-c3nnc(N4CC(N)C4)o3)n2)cc1 [IA-111, 3-[5-(3-aminoazetidin-1-yl)-1,3,4-oxadiazol-2-yl]-5-(4-isopropylsulfonylphenyl)pyrazin-2-amine]
10 to 100 | Cc1ccc2nc(-c3nc(-c4ccc(C(=O)N5CCN(C)CC5)cc4)cnc3N)[nH]c2c1 [III-4, (4-(5-amino-6-(6-methyl-1H-benzo[d]imidazol-2-yl)pyrazin-2-yl)phenyl)(4-methylpiperazin-1-yl)methanone]
≤ 10 | Nc1ncc(-c2ccc(C(=O)N3CCNC(C(F)(F)F)C3)cc2)nc1-c1nnc(-c2ccccc2)o1 (stereo not drawn) [IA-16]
100 to 5000 | CN(C)C(=O)c1ccc(-c2cnc(N)c(-c3nnc(NC4CCCCC4)o3)n2)cc1 [IA-163, 4-[5-amino-6-[5-(cyclohexylamino)-1,3,4-oxadiazol-2-yl]pyrazin-2-yl]-N,N-dimethyl-benzamide]
10 to 100 | CN(C)C(=O)c1ccc(-c2cnc(N)c(-c3nnc(Nc4ccccc4)o3)n2)cc1 [IA-32]
10 to 100 | Nc1ncc(-c2ccc(C(=O)N3CCNCC3)cc2)nc1-c1nnc(-c2ccccc2)o1 [IA-12]
≤ 10 | CNCc1ccc(-c2nnc(-c3nc(-c4ccc(S(=O)(=O)C(C)CCOC)cc4)cnc3N)o2)cc1 (stereo not drawn) [IA-330, 5-[4-(3-methoxy-1-methyl-propyl)sulfonylphenyl]-3-[5-[4-(methylaminomethyl)phenyl]-1,3,4-oxadiazol-2-yl]pyrazin-2-amine]
10 to 100 | CN(C)C1CCN(C(=O)c2c(F)cc(-c3cnc(N)c(-c4nnc(-c5ccccc5)o4)n3)cc2F)CC1 [IA-21]
≤ 10 | Nc1ncc(-c2ccc(S(=O)(=O)N3CCCC3)cc2)nc1-c1nc2ccccc2[nH]1 [Compound I-134, 3-(1H-benzo[d]imidazol-2-yl)-5-(4-(pyrrolidin-1-ylsulfonyl)phenyl) pyrazin-2-amine]
10 to 100 | Nc1ncc(-c2ccc3ncccc3c2)nc1-c1nnc(-c2ccccc2)o1 [IA-63]
≤ 10 | C[S+]([O-])c1ccccc1-c1cnc(N)c(-c2nnc(-c3ccccc3)o2)n1 (stereo not drawn) [IA-241, 5-(2-methylsulfinylphenyl)-3-(5-phenyl-1,3,4-oxadiazol-2-yl)pyrazin-2-amine]
100 to 5000 | CC(C)S(=O)(=O)c1ccc(-c2cnc(N)c(-c3nnc(N4CCCC(N)C4)o3)n2)cc1 (stereo not drawn) [IA-206, 3-[5-(3-amino-1-piperidyl)-1,3,4-oxadiazol-2-yl]-5-(4-isopropylsulfonylphenyl)pyrazin-2-amine]
